The text below walks through data of ChEMBL document CHEMBL3102853, “Carbonic anhydrase inhibitors. Synthesis, and molecular structure of novel series N-substituted N'-(2-arylmethylthio-4-chloro-5-methylbenzenesulfonyl)guanidines and their inhibition of human cytosolic isozymes I and II and the transmembrane tumor-associated isozymes IX and XII” (Eur J Med Chem, 2014).

One assay addresses Carbonic anhydrase 9 (Homo sapiens, UniProt Q16790).
The test system of the next assay is NCI/ADR-RES. Description: Cytotoxicity against human NCI-ADR-RES cells at 10 uM. It counts as functional.
Another assay concerns UACC-62. Description: Cytotoxicity against human UACC62 cells at 10 uM. It counts as functional. The following applies: read-out: GI.
A further assay concerns SK-MEL-2. Description: Cytotoxicity against human SK-MEL-2 cells at 10 uM. It counts as functional.
The subject of a further assay is A549. The assay can be described thus: Cytotoxicity against human A549 cells at 10 uM. The class given is functional.
A further assay relates to NCI-H460. The assay can be described thus: Cytotoxicity against human NCI-H460 cells at 10 uM. It counts as functional. The following applies: read-out: GI.
Another assay concerns SW-620. Description: Cytotoxicity against human SW620 cells at 10 uM. It counts as functional. The following applies: read-out: GI.
The test system of another assay is A498. Description: Cytotoxicity against human A498 cells at 10 uM. The class given is functional. The following applies: read-out: GI.
The nature of assay [1]: Cytotoxicity against human Hs 578T cells at 10 uM. It counts as functional. The following applies: read-out: GI.
A further assay concerns DU-145. The assay can be described thus: Cytotoxicity against human DU145 cells at 10 uM. The class given is functional.
A further assay concerns MCF7. Description: Cytotoxicity against human MCF7 cells at 10 uM. The class given is functional.
A further assay has as its system SF-268. The assay can be described thus: Cytotoxicity against human SF268 cells at 10 uM. The class given is functional. The following applies: read-out: GI.
In the next assay the test system is KM12. Description: Cytotoxicity against human KM12 cells at 10 uM. The class given is functional.
A further assay relates to SNB-75. Description: Cytotoxicity against human SNB75 cells at 10 uM. The following applies: read-out: GI. The class given is functional.
The next assay has as its system OVCAR-3. Description: Cytotoxicity against human OVCAR3 cells at 10 uM. It counts as functional.
A further assay relates to HOP-92. The assay can be described thus: Cytotoxicity against human HOP92 cells at 10 uM. It counts as functional. The following applies: read-out: GI.
The subject of the next assay is LOX IMVI. Description: Cytotoxicity against human LOXIMVI cells at 10 uM. The following applies: read-out: GI. The class given is functional.
A further assay concerns HT-29. The assay can be described thus: Cytotoxicity against human HT-29 cells at 10 uM. The class given is functional.
A further assay has as its system T47D. The assay can be described thus: Cytotoxicity against human T47D cells at 10 uM. The following applies: read-out: GI. The class given is functional.
In the next assay the test system is PC-3. The assay can be described thus: Cytotoxicity against human PC3 cells at 10 uM. The class given is functional.

The structures appear in SMILES notation. Calls of active or inactive are those of the source. The rule behind the calls is not given here.

As for `Cc1cc(S(=O)(=O)NC(=N)Nc2nnc(S(N)(=O)=O)s2)c(SCc2ccc(C(F)(F)F)cc2)cc1Cl`, affinity at Carbonic anhydrase 9 was put at a Ki of 0.0103 µM.

For `Cc1cc(S(=O)(=O)NC(=N)NNc2ccc(S(N)(=O)=O)cc2)c(SCc2cccc(C(F)(F)F)c2)cc1Cl`, the affinity at Carbonic anhydrase 9 corresponds to a Ki of 0.021 µM.

`Cc1cc(S(=O)(=O)NC(=N)Nc2ccccc2S(N)(=O)=O)c(SCc2cccc3ccccc23)cc1Cl`: the Ki – broadly, the dissociation constant of the complex between target and ligand, obtained from inhibition or displacement – at Carbonic anhydrase 9 was 0.138 µM.

For `Cc1cc(S(=O)(=O)NC(=N)Nc2nnc(S(N)(=O)=O)s2)c(SCc2cccc3ccccc23)cc1Cl`, the “growth inhibition (GI)” value in the assay on NCI/ADR-RES, in the assay on SK-MEL-2, with A549, in the assay on DU-145, in the assay on MCF7 and in the assay with KM12 was “inactive” in each case. The “growth inhibition (GI)” value in the assay on OVCAR-3, in the assay with HT-29 and with PC-3 was “inactive” each time. The inhibition of growth at 10 µM in the assay with UACC-62 stood at 2%; in the assay on NCI-H460, 3%; in the assay with SW-620, 8%; with A498 it was 48%; in [1], 15%; with SF-268 it was 4%. Also, the inhibition of growth at 10 µM in the assay on SNB-75 worked out at 11%; in the assay with HOP-92 it was 3%; in the assay on LOX IMVI, 2%; with T47D it was 17%. This compound gave an inhibitory constant (Ki) at Carbonic anhydrase 9 of 0.0094 µM.
